Experimental data as given in PMC6768771 (Current cancer drug targets, 2019).

Experiments:
Test in all cases: Cell viability assay
Assay type in all cases: cell-based
NCI-H1563 cells = conditions: Homo sapiens, NCI-H1563, 48 h, read-out: EC50 at 48 h
NCI-H1299 cells = conditions: Homo sapiens, NCI-H1299, 48 h, read-out: EC50 at 48 h
NCI-H1573 cells = conditions: Homo sapiens, NCI-H1573, 48 h, read-out: EC50 at 48 h
A549 cells = conditions: Homo sapiens, A549, 48 h, read-out: EC50 at 48 h
NCI-H661 cells = conditions: Homo sapiens, NCI-H661, 48 h, read-out: EC50 at 48 h
NCI-H460 cells = conditions: Homo sapiens, NCI-H460, 48 h, read-out: EC50 at 48 h

Compound | EC50 (NCI-H1563 cells) [µM] | EC50 (NCI-H1299 cells) [µM] | EC50 (NCI-H1573 cells) [µM] | EC50 (A549 cells) [µM] | EC50 (NCI-H661 cells) [µM] | EC50 (NCI-H460 cells) [µM]
CC(=O)O[C@@]12CO[C@@H]1C[C@H](O)[C@@]1(C)C(=O)[C@H](O)C3=C(C)[C@@H](OC(=O)[C@H](O)[C@@H](NC(=O)OC(C)(C)C)c4ccccc4)C[C@@](O)([C@@H](OC(=O)c4ccccc4)[C@H]21)C3(C)C [Docetaxel] | 80 | 72 | > 200 | > 200 | > 200 | 56
C#Cc1cccc(Nc2ncnc3cc(OCCOC)c(OCCOC)cc23)c1 [Erlotinib] | > 200 | > 200 | > 200 | > 200 | > 200 | > 200
CC(=O)O[C@H]1C(=O)[C@@]2(C)[C@H]([C@H](OC(=O)c3ccccc3)[C@]3(O)C[C@H](OC(=O)[C@H](O)[C@@H](NC(=O)c4ccccc4)c4ccccc4)C(C)=C1C3(C)C)[C@]1(OC(C)=O)CO[C@@H]1C[C@@H]2O [Paclitaxel] | > 200 | 60 | > 200 | > 200 | 11 | 26
